From patent US8952024B2, “Herbicidal pyrimidone derivatives” (E I du Pont de Nemours and Company, priority 2009, dated 2015)

Assays:
Format in all cases: in vivo
[1] = tested on: chickweed (Stellaria media); experiment: Test B postemergence plant response
Procedure, shortened: (§1)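 Plants at the 1- to 4-leaf stage (2 to 18 cm tall), grown in pots of peat moss/vermiculite medium with wetting agent and starter nutrients, received postemergence applications of test chemicals. After 13 to 15 days in a greenhouse, injury was rated visually against untreated controls on a 0 (no effect) to 100 (complete control) scale.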

[2] = tested on: canarygrass (Phalaris minor); experiment: Test B postemergence plant response
Procedure, shortened: as §1

[3] = tested on: windgrass (Apera spica-venti); experiment: Test B postemergence plant response
Procedure, shortened: as §1

[4] = tested on: lambsquarters (Chenopodium album); experiment: Test B pre-/postemergence plant response
Procedure, shortened: (§2)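 Greenhouse herbicide screen. Pre- and postemergence (1- to 4-leaf) spray of compound in solvent/surfactant mixture; loam–sand soil for pre, peat/vermiculite medium for post. Visual control rating 0–100 at 13 to 15 days after treatment.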

[5] = tested on: blackgrass (Alopecurus myosuroides); experiment: Test B pre-/postemergence plant response
Procedure, shortened: as §2

[6] = tested on: pigweed (Amaranthus retroflexus); experiment: Test B pre-/postemergence plant response
Procedure, shortened: as §2

kochia (Kochia scoparia) = experiment: Test B pre-/postemergence plant response
Procedure, shortened: as §2

soybean (Glycine max) = experiment: Test B pre-/postemergence plant response
Procedure, shortened: as §2

[7] = tested on: cocklebur (Xanthium strumarium); experiment: Test B pre-/postemergence plant response
Procedure, shortened: as §2

[8] = tested on: Surinam grass (Brachiaria decumbens); experiment: Test B pre-/postemergence plant response
Procedure, shortened: as §2

[9] = tested on: wheat (Triticum aestivum); experiment: Test B pre-/postemergence plant response
Procedure, shortened: as §2

wild oat (Avena fatua) = experiment: Test B pre-/postemergence plant response
Procedure, shortened: as §2

[10] = tested on: velvetleaf (Abutilon theophrasti); experiment: Test B pre-/postemergence plant response
Procedure, shortened: as §2

[11] = 31 g ai/ha, postemergence, scale 0 to 100, 0 is no effect, 100 is complete control
[12] = Postemergence, 62 g ai/ha, scale 0 (no effect) to 100 (complete control), 13 to 15 days
[13] = Postemergence, 125 g ai/ha, visual rating after 13 to 15 days, scale 0 (no effect) to 100 (complete control)
[14] = Postemergence, 250 g ai/ha, scale 0 to 100 (0 no effect, 100 complete control)
[15] = 250 g ai/ha, Preemergence, 0 to 100 scale
[16] = Preemergence, 31 g ai/ha, scale 0 to 100 (0 no effect, 100 complete control)
[17] = Preemergence, 62 g ai/ha, scale 0 to 100 (0 no effect, 100 complete control)
[18] = Preemergence, 125 g ai/ha, scale 0 to 100, 0 no effect, 100 complete control

Structure (SMILES): CCCCc1ncc(C(=O)C2=C(O)CCCC2=O)c(=O)n1-c1cccc(C)c1 [Compound 63]
- Plant response rating, Chickweed [1, 11]: 60
- Plant response rating, Chickweed [1, 12]: 65
- Plant response rating, Chickweed [1, 13]: 80
- Plant response rating, Chickweed [1, 14]: 95
- Plant response rating, Canarygrass [2, 11]: 0
- Plant response rating, Canarygrass [2, 12]: 0
- Plant response rating, Canarygrass [2, 13]: 0
- Plant response rating, Canarygrass [2, 14]: 0
- Plant response rating, Windgrass [3, 11]: 10
- Plant response rating, Windgrass [3, 12]: 30
- Plant response rating, Windgrass [3, 13]: 40
- Plant response rating, Windgrass [3, 14]: 60
- Plant response rating, Lambsquarters [4, 15]: 100
- Plant response rating, Lambsquarters [4, 12]: 95
- Plant response rating, Lambsquarters [4, 13]: 98
- Plant response rating, Lambsquarters [4, 14]: 98
- Plant response rating, Lambsquarters [4, 16]: 98
- Plant response rating, Lambsquarters [4, 17]: 98
- Plant response rating, Lambsquarters [4, 18]: 100
- Plant response rating, Blackgrass [5, 11]: 30
- Plant response rating, Blackgrass [5, 15]: 40
- Plant response rating, Blackgrass [5, 12]: 35
- Plant response rating, Blackgrass [5, 13]: 35
- Plant response rating, Blackgrass [5, 14]: 50
- Plant response rating, Blackgrass [5, 16]: 0
- Plant response rating, Blackgrass [5, 17]: 0
- Plant response rating, Blackgrass [5, 18]: 5
- Plant response rating, Pigweed [6, 11]: 85
- Plant response rating, Pigweed [6, 12]: 95
- Plant response rating, Pigweed [6, 13]: 95
- Plant response rating, Pigweed [6, 14]: 100
- Plant response rating, Pigweed [6, 16]: 95
- Plant response rating, Pigweed [6, 17]: 98
- Plant response rating, Pigweed [6, 18]: 100
- Plant response rating, Kochia (kochia (Kochia scoparia); [11]): 10
- Plant response rating, Kochia (kochia (Kochia scoparia); [15]): 100
- Plant response rating, Kochia (kochia (Kochia scoparia); [12]): 25
- Plant response rating, Kochia (kochia (Kochia scoparia); [13]): 25
- Plant response rating, Kochia (kochia (Kochia scoparia); [14]): 65
- Plant response rating, Kochia (kochia (Kochia scoparia); [16]): 0
- Plant response rating, Kochia (kochia (Kochia scoparia); [17]): 100
- Plant response rating, Kochia (kochia (Kochia scoparia); [18]): 100
- Plant response rating, Soybean (soybean (Glycine max); [11]): 75
- Plant response rating, Soybean (soybean (Glycine max); [12]): 75
- Plant response rating, Soybean (soybean (Glycine max); [13]): 85
- Plant response rating, Soybean (soybean (Glycine max); [14]): 85
- Plant response rating, Soybean (soybean (Glycine max); [16]): 0
- Plant response rating, Soybean (soybean (Glycine max); [17]): 0
- Plant response rating, Soybean (soybean (Glycine max); [18]): 5
- Plant response rating, Cocklebur [7, 11]: 65
- Plant response rating, Cocklebur [7, 15]: 10
- Plant response rating, Cocklebur [7, 12]: 80
- Plant response rating, Cocklebur [7, 13]: 90
- Plant response rating, Cocklebur [7, 14]: 95
- Plant response rating, Cocklebur [7, 16]: 0
- Plant response rating, Cocklebur [7, 17]: 0
- Plant response rating, Cocklebur [7, 18]: 0
- Plant response rating, Surinam Grass [8, 11]: 10
- Plant response rating, Surinam Grass [8, 12]: 25
- Plant response rating, Surinam Grass [8, 13]: 35
- Plant response rating, Surinam Grass [8, 14]: 75
- Plant response rating, Surinam Grass [8, 16]: 0
- Plant response rating, Surinam Grass [8, 17]: 0
- Plant response rating, Surinam Grass [8, 18]: 55
- Plant response rating, Wheat [9, 11]: 0
- Plant response rating, Wheat [9, 12]: 0
- Plant response rating, Wheat [9, 13]: 0
- Plant response rating, Wheat [9, 14]: 10
- Plant response rating, Wheat [9, 16]: 0
- Plant response rating, Wheat [9, 17]: 0
- Plant response rating, Wheat [9, 18]: 0
- Plant response rating, Oat, Wild (wild oat (Avena fatua); [11]): 0
- Plant response rating, Oat, Wild (wild oat (Avena fatua); [12]): 0
- Plant response rating, Oat, Wild (wild oat (Avena fatua); [13]): 5
- Plant response rating, Oat, Wild (wild oat (Avena fatua); [14]): 20
- Plant response rating, Oat, Wild (wild oat (Avena fatua); [16]): 0
- Plant response rating, Oat, Wild (wild oat (Avena fatua); [17]): 0
- Plant response rating, Oat, Wild (wild oat (Avena fatua); [18]): 0
- Plant response rating, Velvetleaf [10, 11]: 95
- Plant response rating, Velvetleaf [10, 12]: 98
- Plant response rating, Velvetleaf [10, 13]: 98
- Plant response rating, Velvetleaf [10, 14]: 98
- Plant response rating, Velvetleaf [10, 16]: 75
- Plant response rating, Velvetleaf [10, 17]: 90
- Plant response rating, Velvetleaf [10, 18]: 100

Structure (SMILES): O=C1CCCC(O)=C1C(=O)c1cnc(-c2cccc(Cl)c2)n(-c2ccc(Cl)cc2)c1=O [Compound 64]
- Plant response rating, Chickweed [1, 11]: 98
- Plant response rating, Chickweed [1, 12]: 98
- Plant response rating, Chickweed [1, 13]: 98
- Plant response rating, Chickweed [1, 14]: 100
- Plant response rating, Canarygrass [2, 11]: 40
- Plant response rating, Canarygrass [2, 12]: 40
- Plant response rating, Canarygrass [2, 13]: 40
- Plant response rating, Canarygrass [2, 14]: 60
- Plant response rating, Windgrass [3, 11]: 70
- Plant response rating, Windgrass [3, 12]: 90
- Plant response rating, Windgrass [3, 13]: 95
- Plant response rating, Windgrass [3, 14]: 100
- Plant response rating, Lambsquarters [4, 11]: 95
- Plant response rating, Lambsquarters [4, 15]: 98
- Plant response rating, Lambsquarters [4, 12]: 100
- Plant response rating, Lambsquarters [4, 13]: 100
- Plant response rating, Lambsquarters [4, 14]: 100
- Plant response rating, Lambsquarters [4, 16]: 95
- Plant response rating, Lambsquarters [4, 17]: 98
- Plant response rating, Lambsquarters [4, 18]: 98
- Plant response rating, Blackgrass [5, 11]: 0
- Plant response rating, Blackgrass [5, 15]: 0
- Plant response rating, Blackgrass [5, 12]: 0
- Plant response rating, Blackgrass [5, 13]: 5
- Plant response rating, Blackgrass [5, 14]: 15
- Plant response rating, Blackgrass [5, 16]: 0
- Plant response rating, Blackgrass [5, 17]: 0
- Plant response rating, Blackgrass [5, 18]: 0
- Plant response rating, Pigweed [6, 11]: 98
- Plant response rating, Pigweed [6, 12]: 100
- Plant response rating, Pigweed [6, 13]: 100
- Plant response rating, Pigweed [6, 14]: 100
- Plant response rating, Pigweed [6, 16]: 55
- Plant response rating, Pigweed [6, 17]: 75
- Plant response rating, Pigweed [6, 18]: 85
- Plant response rating, Kochia (kochia (Kochia scoparia); [11]): 50
- Plant response rating, Kochia (kochia (Kochia scoparia); [15]): 95
- Plant response rating, Kochia (kochia (Kochia scoparia); [12]): 55
- Plant response rating, Kochia (kochia (Kochia scoparia); [13]): 80
- Plant response rating, Kochia (kochia (Kochia scoparia); [14]): 80
- Plant response rating, Kochia (kochia (Kochia scoparia); [16]): 0
- Plant response rating, Kochia (kochia (Kochia scoparia); [17]): 0
- Plant response rating, Kochia (kochia (Kochia scoparia); [18]): 45
- Plant response rating, Soybean (soybean (Glycine max); [11]): 85
- Plant response rating, Soybean (soybean (Glycine max); [12]): 98
- Plant response rating, Soybean (soybean (Glycine max); [13]): 98
- Plant response rating, Soybean (soybean (Glycine max); [14]): 98
- Plant response rating, Cocklebur [7, 11]: 90
- Plant response rating, Cocklebur [7, 15]: 70
- Plant response rating, Cocklebur [7, 12]: 95
- Plant response rating, Cocklebur [7, 13]: 95
- Plant response rating, Cocklebur [7, 14]: 95
- Plant response rating, Cocklebur [7, 16]: 0
- Plant response rating, Cocklebur [7, 17]: 0
- Plant response rating, Cocklebur [7, 18]: 10
- Plant response rating, Surinam Grass [8, 11]: 85
- Plant response rating, Surinam Grass [8, 12]: 95
- Plant response rating, Surinam Grass [8, 13]: 98
- Plant response rating, Surinam Grass [8, 14]: 98
- Plant response rating, Surinam Grass [8, 16]: 0
- Plant response rating, Surinam Grass [8, 17]: 85
- Plant response rating, Surinam Grass [8, 18]: 85
- Plant response rating, Wheat [9, 11]: 10
- Plant response rating, Wheat [9, 12]: 15
- Plant response rating, Wheat [9, 13]: 30
- Plant response rating, Wheat [9, 14]: 55
- Plant response rating, Wheat [9, 16]: 0
- Plant response rating, Wheat [9, 17]: 0
- Plant response rating, Wheat [9, 18]: 0
- Plant response rating, Oat, Wild (wild oat (Avena fatua); [11]): 60
- Plant response rating, Oat, Wild (wild oat (Avena fatua); [12]): 90
- Plant response rating, Oat, Wild (wild oat (Avena fatua); [13]): 95
- Plant response rating, Oat, Wild (wild oat (Avena fatua); [14]): 98
- Plant response rating, Oat, Wild (wild oat (Avena fatua); [16]): 0
- Plant response rating, Oat, Wild (wild oat (Avena fatua); [17]): 0
- Plant response rating, Oat, Wild (wild oat (Avena fatua); [18]): 0
- Plant response rating, Velvetleaf [10, 11]: 85
- Plant response rating, Velvetleaf [10, 12]: 98
- Plant response rating, Velvetleaf [10, 13]: 98
- Plant response rating, Velvetleaf [10, 14]: 100
- Plant response rating, Velvetleaf [10, 16]: 65
- Plant response rating, Velvetleaf [10, 17]: 75
- Plant response rating, Velvetleaf [10, 18]: 95
